Data: article PMC8807399, “Synthesis, Characterization, and in vivo Evaluation of a Novel Potent Autotaxin-Inhibitor” (Frontiers in Pharmacology, 2022)
In brackets after ≈: the same amount, converted by molar mass.

Legend:
[1] = Lipophilicity (LogD, octanol/buffer); assay type: physicochemical; conditions: 1-octanol / 25 mM phosphate buffer; pH 7.4, octanol/25 mM phosphate buffer
Experimental: The experiment started with the accurate coating of the hydrophobic layer (0.45 µm PVDF membranes), which was fixed on the bottom of each DIFI©-tube (Weidmann Medical Technology AG, Rapperswil, Switzerland). The coated membranes were then connected to a 96-well plate which has been prefilled with exactly 150 µl of the selected aqueous buffer solution (25 mM phosphate buffer, pH 7.4). The buffer solution contains already the compound of interest with a maximum starting concentration of 85 µM. To expand the measurement range down to logD = −0.5 and up to logD = +4, it is necessary to carry out the procedure at two different octanol/water ratios: One with an excess of octanol for hydrophilic compounds (logD < 1) and one with a low volume of octanol for the lipophilic compounds (logD > 1). Therefore, parts of the DIFI©-tubes were filled with 15 µl 1-octanol and another part with 1 µl 1-octanol. The resulting sandwich guarantees that the membrane was completely dipped in the buffer solution. The plate was then sealed and shaken for 12 h at room temperature (23°C). During this time, the substance is distributed between the layer, the octanol, and the buffer solution. After having reached a distribution equilibrium, the DIFI©-tubes were easily disassembled from the top of the 96-well plate, so that the remaining sample concentration in the aqueous phase could be analyzed by LC/MS.

[2] = HT-solubility assay; assay type: physicochemical; conditions: aqueous buffer, thermodynamic from solid; phosphate buffer pH 6.5
Experimental: This assay was performed on a TECAN station starting from 10 mM DMSO stock solutions of the test compounds. Two aliquots of the test compound were dried and dissolved in phosphate buffer at pH 6.5. Sonication supports optimal re-solubilization. The solutions were then filtered and diluted (3 different dilution levels for each compound) followed by quantification of the dissolved material with Rapid-Fire MS. Quantification was performed for each test compound with a 6-point calibration curve prepared with the same DMSO starting solution.

[3] = In vitro microsomal stability, human; assay type: in vitro ADME; conditions: human microsomes, 1 µM; value of 10 = low clearance, essentially below detection limit
Experimental: (§1) Incubations of a test compound at a concentration of 1 µM with microsomes (0.5 mg/ml) from the appropriate species (human, mouse, or rat) plus cofactor NADPH were performed in 96-well plates at 37°C on a TECAN automated liquid handling system (Tecan Group Ltd., Männedorf, Switzerland). After pre-incubation of the test compound with the microsomes for 10 min, the enzymatic reaction was started by the addition of cofactors. Aliquots of the incubations are removed at 1, 3, 6, 9, 15, 25, 35, and 45 min and are then quenched with 1:3 (v/v) acetonitrile containing internal standards. Samples were then cooled and centrifuged before analysis of the supernatant by LC-MS/MS. Logarithmic Peak area ratios (test compound peak area/internal standard peak area) were plotted against incubation time and a linear fit made to the data with emphasis upon the initial rate of compound disappearance. The slope of the fit was then used to calculate the intrinsic clearance: Clint (µL/min/mg protein) = −slope (min-1) * 1,000/[protein concentration (mg/ml)].

[4] = In vitro microsomal stability, mouse; assay type: in vitro ADME; conditions: mouse microsomes, 1 µM; value of 10 = low clearance, essentially below detection limit
Experimental: as §1

[5] = In vitro microsomal stability, rat; assay type: in vitro ADME; conditions: rat microsomes, 1 µM; value of 10 = low clearance, essentially below detection limit
Experimental: as §1

[6] = Glutathione addition screening; assay type: in vitro ADME; conditions: human liver microsomes + NADPH + GSH
Experimental: All sample handling was performed based on a 96-well plate format using an automated pipetting system. The test compounds, positive controls (diclofenac, troglitazone, nefazodone, 4-[[1-(4-fluorophenyl)-2-methyl-1H-imidazol-4-yl]ethynyl]-2-methylpyridine) and solvent control (DMSO) were incubated with human liver microsomes supplemented with NADPH and reduced GSH. Stable GSH conjugates whose production can be assumed to be the result of chemically reactive metabolites were detected using a quadrupole time of flight mass spectrometer run in untargeted full scan accurate mass MSE mode (Waters Xevo G1 QTOFMSE; Waters GmbH, Eschborn, Germany). This generic GSH adduct detection method and the assay workflow are taking advantage of the specific fragmentation behavior of the peptide moiety upon collision induced dissociation of GSH adducts and so are largely independent of the conjugate (“X”) itself.

[7] = molecular target: T1, human ATX (Homo sapiens, UniProt Q13822); assay: Autotaxin inhibition assay (Amplex-Red); assay type: biochemical; conditions: ATX 3 nM, LPC 18:1 30 μM, read-out: hATX IC50
T1 construct: made in house
Experimental: Plates were sealed and incubated for 5 min. The final assay concentrations were ATX 3 nM, choline oxidase 2 U/ml, horseradish peroxidase 4 U/ml, LPC 18:1 30 μM, Amplex Red 50 μM, and DMSO 2%.

[8] = Single dose PK in rats; assay type: in vivo; conditions: rat
Experimental: Exposures in animals treated with ATX-inhibitors were determined from K2EDTA treated plasma by LC-MS/MS at different time points. 25 µL of plasma was used for a single concentration determination. Concentration/time profiles were analyzed with MS Excel (Microsoft Corporation, Redmond, WA, United States).
For PK experiments for 7, 13, 14, and 15, respectively, animals were treated either iv or po and exposures were determined at different time points after compound administration. Suitable formulations for 13 were, for example, NMP:Tris buffer pH 8.5 (30%/70%) for iv administration with a nominal drug concentration of 1 mg/ml (dose 2 mg/kg) and a suspension in NMP:gelatine/NaCl (10%/90%) for po administration with a nominal drug concentration of 2.5 mg/ml (dose 10 mg/kg). PK parameters in Table 2 were estimated from the concentration time profiles using Phoenix WinNonlin software (Certara, Princeton, NJ, United States).

logD at 12 h [1]	solubility [2] [µg/mL]	Mic CL h [3]	Mic CL m [4]	Mic CL r [5] [µL/m/mg prot]	GSH adducts [6]	IC50 [7] [nM]	AUC(0-inf) ([8]; plasma, iv bolus, 3 mg/kg) [ng·h/mL]	half-life ([8]; plasma, iv bolus, 3 mg/kg) [min]	clearance ([8]; plasma, iv bolus, 3 mg/kg, read-out: CLp) [mL/min/kg]	Vd ([8]; plasma, iv bolus, 3 mg/kg, read-out: Vdss) [L/kg]	AUC(0-inf) ([8]; plasma, oral gavage, 20 mg/kg) [ng·h/mL]	Cmax ([8]; plasma, oral gavage, 20 mg/kg) [ng/mL]	Tmax ([8]; plasma, oral gavage, 20 mg/kg) [min]	half-life ([8]; plasma, oral gavage, 20 mg/kg) [min]	Oral F ([8]; oral gavage, 20 mg/kg) [%]	SMILES
2.7	< 1	65 µL/m/mg prot	78 µL/m/mg prot	84	pos											O=C(CCN1CCN(C(=O)OCc2cc(Cl)cc(Cl)c2)CC1)c1ccc2[nH]c(=O)oc2c1 [Compound 1, reference compound]
3.6	3 (≈ 6.32 µM)	30 µL/m/mg prot	63 µL/m/mg prot	29	pos	67										O=C(OCc1cc(Cl)cc(Cl)c1)N1CCC2(CC1)CN(C(=O)c1ccc3[nH]nnc3c1)C2 [Compound 9, 3,5-Dichlorobenzyl 2-(1H-benzo[d][1,2,3]triazole-5-carbonyl)-2,7-diazaspiro[3.5]-nonane-7-carboxylate]
3.6	< 1	54 µL/m/mg prot	149 µL/m/mg prot		pos	17										O=C(OCc1cc(Cl)cc(Cl)c1)N1CCC2(CC1)CN(C(=O)c1ccc3[nH]c(=O)oc3c1)C2 [Compound 4, 3,5-Dichlorobenzyl 2-(2-oxo-2,3-dihydrobenzo[d]oxazole-6-carbonyl)-2,7-diaza-spiro[3.5]-nonane-7-carboxylate]
3.5	9 (≈ 19 µM)	23 µL/m/mg prot	65 µL/m/mg prot		pos	4										O=C(OCc1cc(Cl)cc(Cl)c1)N1CC[C@@H]2CN(C(=O)c3ccc4[nH]nnc4c3)C[C@H]2C1 (relative stereo) [Compound 6, trans-2-(1H-Benzotriazole-5-carbonyl)-octahydro-pyrrolo[3,4-c]pyridine-5-carboxylic acid 3,5-dichloro-benzyl ester]
3.1	34 (≈ 73.9 µM)	23 µL/m/mg prot	68 µL/m/mg prot		pos	265										O=C(OCc1cc(Cl)cc(Cl)c1)N1C[C@@H]2CN(C(=O)c3ccc4[nH]nnc4c3)C[C@@H]2C1 [Compound 8, (3aR,6aS)-3,5-dichlorobenzyl 5-(1H-benzo[d][1,2,3]triazole-5-carbonyl)hexahydro-pyrrolo[3,4-c]pyrrole-2(1H)-carboxylate]
3.3	19 (≈ 39.9 µM)	64 µL/m/mg prot	288 µL/m/mg prot	335	pos	65										O=C(OCc1cc(Cl)cc(Cl)c1)N1C[C@@H]2CN(C(=O)c3ccc4[nH]c(=O)oc4c3)C[C@@H]2C1 [Compound 5, (3aR,6aS)-3,5-Dichlorobenzyl 5-(2-oxo-2,3-dihydrobenzo[d]oxazole-6-carbonyl)-hexahydropyrrolo[3,4-c]pyrrole-2(1H)-carboxylate]
3.6	< 1	92 µL/m/mg prot	81 µL/m/mg prot			220										O=C(OCc1cc(Cl)cc(Cl)c1)N1CC2(CCN(C(=O)c3ccc4[nH]c(=O)oc4c3)CC2)C1 [Compound 3, trans-3,5-Dichlorobenzyl 7-(2-oxo-2,3-dihydrobenzo[d]oxazole-6-carbonyl)-2,7-diaza-spiro[3.5]nonane-2-carboxylate]
2.3	< 1	10/10/na µL/m/mg prot	10/10/na µL/m/mg prot		Neg	1										O=C(/C=C/c1ccc(OC(F)(F)F)cc1)N1C[C@@H]2CN(C(=O)c3ccc4[nH]nnc4c3)C[C@H]2C1 [Compound 11, (E)-1-((3aR,6aR)-5-(1H-benzo[d][1,2,3]triazole-5-carbonyl)hexahydropyrrolo[3,4-c]pyrrol-2(1H)-yl)-3-(4-(trifluoromethoxy)phenyl)prop-2-en-1-one]
3.1	9 (≈ 19.6 µM)	16 µL/m/mg prot	17 µL/m/mg prot	10	pos	4	2140	48	23	1.3	7900	2500	15	96	54	O=C(OCc1cc(Cl)cc(Cl)c1)N1C[C@@H]2CN(C(=O)c3ccc4[nH]nnc4c3)C[C@H]2C1 [Compound 7, (3aS,6aS)-5-(1H-Benzotriazole-5-carbonyl)-hexahydro-pyrrolo [3,4-c]pyrrole-2-carboxylic acid 3,5-dichloro-benzyl ester]
	7 (≈ 14.3 µM)	252 µL/m/mg prot	727 µL/m/mg prot			1										O=C(OCc1cc(Cl)cc(Cl)c1)N1CC[C@@H]2CN(C(=O)c3ccc4[nH]nnc4c3)C[C@@H]2CC1 [Compound 10, cis-3,5-Dichlorobenzyl 2-(1H-benzo[d][1,2,3]triazole-5-carbonyl)octahydropyrrolo-[3,4-d]azepine-6(7H)-carboxylate]

SMILES	logD at 12 h [1]	solubility [2] [µg/mL]	Mic CL h [3]	Mic CL m [4]	Mic CL r [5] [µL/m/mg prot]	GSH adducts [6]	IC50 [7] [nM]	AUC(0-inf) ([8]; plasma, iv bolus, 3 mg/kg) [ng·h/mL]	half-life ([8]; plasma, iv bolus, 3 mg/kg) [min]	clearance ([8]; plasma, iv bolus, 3 mg/kg, read-out: CLp) [mL/min/kg]	Vd ([8]; plasma, iv bolus, 3 mg/kg, read-out: Vdss) [L/kg]	AUC(0-inf) ([8]; plasma, oral gavage, 20 mg/kg) [ng·h/mL]	Cmax ([8]; plasma, oral gavage, 20 mg/kg) [ng/mL]	Tmax ([8]; plasma, oral gavage, 20 mg/kg) [min]	half-life ([8]; plasma, oral gavage, 20 mg/kg) [min]	Oral F ([8]; oral gavage, 20 mg/kg) [%]
O=C(OCc1cc(Cl)cc(Cl)c1)N1CC[C@@H]2CN(C(=O)c3ccc4[nH]c(=O)oc4c3)C[C@H]2C1 (relative stereo) [Compound 2, trans-3,5-Dichlorobenzyl 2-(2-oxo-2,3-dihydrobenzo[d]oxazole-6-carbonyl)hexa-hydro-1H-pyrrolo[3,4-c]pyridine-5(6H)-carboxylate]	3.7	< 1	39 µL/m/mg prot	74 µL/m/mg prot		formation of GSH adducts was still observed and pos	3									
